One data set deals with T1, S. mansoni TGR (Schistosoma mansoni, UniProt Q962Y6).
T1 construct: made in house; host or cells: E. coli
T1 sequence (Q962Y6 1-598): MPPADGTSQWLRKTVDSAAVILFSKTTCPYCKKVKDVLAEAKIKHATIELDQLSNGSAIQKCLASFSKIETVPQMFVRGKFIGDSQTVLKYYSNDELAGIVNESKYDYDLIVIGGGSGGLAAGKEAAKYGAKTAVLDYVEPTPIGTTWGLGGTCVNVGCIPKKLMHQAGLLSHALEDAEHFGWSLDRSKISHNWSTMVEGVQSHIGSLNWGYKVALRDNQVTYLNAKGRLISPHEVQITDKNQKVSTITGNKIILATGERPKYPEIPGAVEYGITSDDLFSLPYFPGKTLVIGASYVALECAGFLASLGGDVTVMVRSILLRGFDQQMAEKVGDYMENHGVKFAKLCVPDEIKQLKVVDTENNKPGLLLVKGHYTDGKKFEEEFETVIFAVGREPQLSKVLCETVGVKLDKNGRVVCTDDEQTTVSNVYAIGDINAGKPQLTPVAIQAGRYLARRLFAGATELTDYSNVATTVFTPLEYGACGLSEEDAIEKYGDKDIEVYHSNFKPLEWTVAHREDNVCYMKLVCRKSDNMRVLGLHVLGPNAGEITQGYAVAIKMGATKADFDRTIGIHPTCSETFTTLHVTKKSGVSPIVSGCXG
In words: biochemical. As to conditions: 40 nM enzyme, 3 mM DTNB; after 10 min preincubation; read-out: IC50 S. mansoni TGR, substrate DTNB (original data). As for the experimental part:
Enzymes were prepared in E. coli as described. Assays were performed at 25 °C in 0.1 M potassium phosphate (pH 7.4), 10 mM EDTA using 100 μM NADPH and 3 mM dithiobis(2-nitrobenzoic acid) (DTNB). […] The increase in A412 during the first 3 min was recorded upon DTNB addition. The reaction was done in triplicate.

Data set [1] relates to T. b. brucei Squib-427 strain. Kind of data set: Anti-trypanosomal activity, T. b. brucei trypomastigotes (resazurin). The class given is cell-based, Trypanosoma brucei brucei. As to conditions: 72 h. As for the experimental part:
Anti-trypanosomal activity: T. b. brucei Squib-427 strain (suramin-sensitive) and T. b. gambiense (ITMAP/1893) were cultured at 37 °C and 5% CO2 in HMI-9 medium supplemented with 10% FCS [90]. About 10^4 trypomastigotes/well were added to each well and parasite growth was assessed after 72 h at 37 °C by adding resazurin and reading at ex 550 nm, em 590 nm. Suramin was included as reference drug for T. b. brucei and pentamidine for T. b. gambiense.

Data set [2] relates to Leishmania donovani LV9 intramacrophage amastigotes. In words: L. donovani LV9 intramacrophage amastigotes. Format: cell-based. As to conditions: read-out: Leishmania Donovani LV9 Intramacrophage Amastigotes IC50 (µm) ± SD. As for the experimental part: In vitro anti-leishmanial evaluation was perfomed on both axenic and intramacrophage L. donovani amastigotes as previously described. […] Briefly, compounds were distributed in 96-well plates using 2-fold dilutions in 100 µL PYG medium. A. castellanii trophozoites were added to each well at 5 × 10^4 amoeba/mL in 200 µL final volume. L. donovani axenic amastigotes were added to each well at 10^6 parasites/mL in 200 µL final volume. After 72 h incubation at 27 °C, 20 µL of 1 mM resazurin was added to each well and further incubated at 27 °C for 8 h for A. castellanii and for 24 h for L. donovani axenic amastigotes. In living cells, resazurin is reduced in resorufin. This conversion is monitored by measuring the absorbance at specific wavelengths of resorufin (570 nm) and resazurin (600 nm) using a microplate reader (Labsystems Multiskan MS, McLean, VA, USA). In this assay, the activity was expressed in IC50. Miltefosine and pentamidine were used as reference drugs. All experiments were performed in three independent experiments.

For the next data set, the system named is RAW 264.7 macrophages. In words: Cytotoxicity on RAW 264.7 macrophages. As to conditions: 48 h incubation; read-out: Cytotoxicity on RAW 264.7 Macrophages CC50 (µM) ± SD. The class given is cell-based, murine. As to the method: Cytotoxicity was evaluated on RAW 264.7 macrophages that were maintained at 37 °C with 5% CO2 in Dulbecco’s Modified Eagle’s Medium (DMEM, Invitrogen, Toulouse, France) supplemented with 100 U/mL penicillin-streptomycin (Invitrogen) and 10% heat-inactivated fetal bovine serum, as previously described. Briefly, cells were plated in 96-well microplates at a density of 2 × 10^4 cells per well. After incubation for 24 h at 37 °C in 5% CO2, the medium was removed from each well and 100 µL of medium containing 2-fold serial dilutions of compounds was added to each well. After 48 h incubation at 37 °C in 5% CO2, 10 µL of 450 µM resazurin was added to each well and further incubated in the dark for 4 h. Cell viability was determined as described above. The cytotoxicity of the compounds was expressed as CC50.

Data set [3] relates to primary mouse macrophages (PMM). Kind of data set: in vitro. As to the method: Toxicity in human fetal lung fibroblast (MRC-5) cell line and primary mouse macrophages (PMM) was assessed using a previously reported assay in 96-well microtiter plates. Tamoxifen and miltefosine were included as reference drugs (Table 10).
For MRC5SV2 or PMM cells, the assays were performed in 96-well microtiter plates, each well containing 10 µL of compound dilution and 190 µL of cell inoculum (3 × 10^4 cells/mL) as reported. Cell growth was compared to untreated controls (100% growth) and assay-media controls (0% growth). After three-day incubation, cell viability was assessed fluorometrically by adding resazurin [50 µL/well of a stock solution in phosphate buffer (50 µg/mL)], incubating for 4 h and measuring fluorescence (ex 550 nm, em 590 nm). The results are expressed as percentage reduction in cell growth as compared to untreated control wells. […] Tamoxifen was included as the reference drug.

For the next data set, the system named is BL3 cells. Kind of data set: Proliferation test on non-infected BL3 cells. The class given is cell-based, bovine. To be noted: […] and 0.5 μM. As for the experimental part: Theileria annulata culture: The TBL3 cell line was derived by in vitro infection of the spontaneous bovine B-lymphosarcoma cell line BL3 with the Hissar stock of T. annulata. B cell characteristics of the lines have been described. The cells are maintained at 37 °C under 5% CO2, in RPMI medium supplemented with 10% FCS, 25 mM Hepes, 4 mM L-glutamine, 100 μg/mL of streptomycin, 100 IU/mL of penicillin and […] 2-mercapthoethanol.
Cells were cultured in 12-well plates at an initial density of 200,000 cells per well in duplicate for each condition. […] The cells were cultured in 12-well plates at an initial density of 200,000 cells per well and drug was added every 24 h. To be able to compare the results, a drug-free control was also performed. Cell counting was done at 24, 72 and 96 h using the trypan blue method.

Another data set concerns Human TrxR. To be noted: 30 nM enzyme, 20 µM substrate; after 10 min enzyme-NADPH-gold complex preincubation; read-out: IC50 Human TrxR, substrate hTrxC72S; cited from earlier work.

For orientation: IC50 means the concentration that gives 50% inhibition. As for `CC(=O)OCC1OC([S][Au][PH]2(c3ccccc3)C(c3ccccn3)=CC=C2c2ccccn2)C(OC(C)=O)C(OC(C)=O)C1OC(C)=O` [GoPI-sugar, 1-thio-β-D-glucopyranose 2,3,4,6-tetraacetato-S-Au{1-phenyl-2,5-di(2-pyridyl)phosphole}], the half-inhibitory concentration (IC50) at S. mansoni TGR was 12.5 nM; in data set [1], 1830 nM; in data set [2], 420 ± 150 nM; in the data set with Human TrxR, 4.3 ± 1.6 nM. Also, the CC50 stood at 4.35 ± 0.04 µM in the data set with RAW 264.7 macrophages and 8000 nM in data set [3]. The “proliferation of BL3 compared to untreated BL3 cells” value in the data set on BL3 cells is on record as “dampened”.

The values are drawn from publication PMC7663263 (Molecules, 2020).
